Experimental findings from patent US20120183950A1, “TISSUE ANALYSIS” (priority 2009, published 2012) are described below.

This assay concerns influenza virus H3N2X31. The format is cell-based. The following applies: human bronchial and parenchymal lung tissue explants, X31 virus, NP-1 antibody, flow cytometry; FIG. 8. (In flow cytometry, cells or beads pass a laser one at a time.)

`Cl.N` [ammonium chloride]: the “efficacy as inhibitor of viral infection in the explant model (primary output: percentage of cells infected)” value is “demonstrated the efficacy”.

On to `CCOC(=O)C1=C[C@@H](OC(CC)CC)[C@H](NC(C)=O)[C@@H](N)C1` [oseltamivir], for which the “efficacy as inhibitor of viral infection in the explant model (primary output: percentage of cells infected)” value is given as “demonstrated the efficacy”.
